From ChEMBL document CHEMBL1795292, “Discovery of molecules for the treatment of neuropathic pain: synthesis, antiallodynic and antihyperalgesic activities of 5-(4-nitrophenyl)furoic-2-acid hydrazones” (2011)
Activity calls are given as the source filed them. The calls are words filed in the database; no cut-off is given here.

Key:
Rattus norvegicus [1] = assay: Antiallodynic activity in Wistar albino rat chronic constriction injury-induced neuropathic pain model assessed as reversal of spontaneous pain response measured as withdrawal duration at 100 mg/kg, ip; format: functional; settings: route intraperitoneal
Rattus norvegicus [2] = assay: Antiallodynic activity in Wistar albino rat chronic constriction injury-induced neuropathic pain model assessed as attenuation of mechanical allodynia measured as paw withdrawal latency at 100 mg/kg, ip; format: functional; settings: route intraperitoneal
Rattus norvegicus [3] = assay: Antiallodynic activity in Wistar albino rat chronic constriction injury-induced neuropathic pain model assessed as reversal of spontaneous pain response after 0.5 hrs at 100 mg/kg, ip; format: functional, organism-based; design: dose 100 mg/kg
Rattus norvegicus [4] = assay: Antiallodynic activity in Wistar albino rat chronic constriction injury-induced neuropathic pain model assessed as attenuation of mechanical allodynia after 1.5 hrs at 100 mg/kg, ip; format: functional, organism-based; design: dose 100 mg/kg
Rattus norvegicus [5] = assay: Antiallodynic activity in Wistar albino rat chronic constriction injury-induced neuropathic pain model assessed as attenuation of cold allodynia at 100 mg/kg, ip; format: functional, organism-based; design: dose 100 mg/kg
Rattus norvegicus [6] = assay: Antihyperalgesic activity in Wistar albino rat chronic constriction injury-induced neuropathic pain model assessed as attenuation of mechanical pinkprick-induced hyperalgesia after 1.5 at 100 mg/kg, ip; format: functional, organism-based; design: dose 100 mg/kg
Rattus norvegicus [7] = assay: Antiallodynic activity in Wistar albino rat chronic constriction injury-induced neuropathic pain model assessed as attenuation of cold allodynia measured as paw withdrawal duration at 100 mg/kg, ip; format: functional; settings: route intraperitoneal
Rattus norvegicus [8] = assay: Antiallodynic activity in Wistar albino rat chronic constriction injury-induced neuropathic pain model assessed as attenuation of mechanical allodynia after 0.5 hrs at 100 mg/kg, ip; format: functional, organism-based; design: dose 100 mg/kg
Rattus norvegicus [9] = assay: Antiallodynic activity in Wistar albino rat chronic constriction injury-induced neuropathic pain model assessed as reversal of spontaneous pain response at 100 mg/kg, ip; format: functional, organism-based; design: dose 100 mg/kg
Rattus norvegicus [10] = assay: Antihyperalgesic activity in Wistar albino rat chronic constriction injury-induced neuropathic pain model assessed as attenuation of mechanical pinkprick-induced hyperalgesia after 0.5 to 1.5 at 100 mg/kg, ip; format: functional, organism-based; design: dose 100 mg/kg
Rattus norvegicus [11] = assay: Antiallodynic activity in Wistar albino rat chronic constriction injury-induced neuropathic pain model assessed as reversal of spontaneous pain response up to 1 hr at 100 mg/kg, ip; format: functional, organism-based; design: dose 100 mg/kg
Rattus norvegicus [12] = assay: Antiallodynic activity in Wistar albino rat chronic constriction injury-induced neuropathic pain model assessed as attenuation of cold allodynia after 0.5 to 1 hr at 100 mg/kg, ip; format: functional, organism-based; design: dose 100 mg/kg
Rattus norvegicus [13] = assay: Antiallodynic activity in Wistar albino rat chronic constriction injury-induced neuropathic pain model assessed as attenuation of cold allodynia after 1 to 2.5 hrs at 100 mg/kg, ip; format: functional, organism-based; design: dose 100 mg/kg
Rattus norvegicus [14] = assay: Antihyperalgesic activity in Wistar albino rat chronic constriction injury-induced neuropathic pain model assessed as attenuation of mechanical pinkprick-induced hyperalgesia after 0.5 to 1 at 100 mg/kg, ip; format: functional, organism-based; design: dose 100 mg/kg
Rattus norvegicus [15] = assay: Antihyperalgesic activity in Wistar albino rat chronic constriction injury-induced neuropathic pain model assessed as attenuation of mechanical pinkprick-induced hyperalgesia up to 2.5 at 100 mg/kg, ip; format: functional, organism-based; design: dose 100 mg/kg
Rattus norvegicus [16] = assay: Antiallodynic activity in Wistar albino rat chronic constriction injury-induced neuropathic pain model assessed as reversal of spontaneous pain response at 100 mg/kg, ip relative to gabapentin; format: functional; settings: route intraperitoneal
Rattus norvegicus [17] = assay: Antiallodynic activity in Wistar albino rat chronic constriction injury-induced neuropathic pain model assessed as attenuation of mechanical allodynia at 100 mg/kg, ip; format: functional, organism-based; design: dose 100 mg/kg
Rattus norvegicus [18] = assay: Antiallodynic activity in Wistar albino rat chronic constriction injury-induced neuropathic pain model assessed as reversal of spontaneous pain response after 1 hrs at 100 mg/kg, ip; format: functional, organism-based; design: dose 100 mg/kg
Rattus norvegicus [19] = assay: Antiallodynic activity in Wistar albino rat chronic constriction injury-induced neuropathic pain model assessed as attenuation of cold allodynia at 100 mg/kg, ip relative to carbamazepine and lamotrigine; format: functional; settings: route intraperitoneal
Rattus norvegicus [20] = assay: Antiallodynic activity in Wistar albino rat chronic constriction injury-induced neuropathic pain model assessed as reversal of spontaneous pain response up to 2 hrs at 100 mg/kg, ip; format: functional, organism-based; design: dose 100 mg/kg

| SMILES | Time (Rattus norvegicus [1]) [h] | Time (Rattus norvegicus [2]) [h] | Activity (Rattus norvegicus [3]) | Activity (Rattus norvegicus [5]) | Activity (Rattus norvegicus [6]) | Time (Rattus norvegicus [7]) [h] | Activity (Rattus norvegicus [8]) | Activity (Rattus norvegicus [9]) | Activity (Rattus norvegicus [17]) | other results |
| --- | --- | --- | --- | --- | --- | --- | --- | --- | --- | --- |
| COc1cc(/C=N/NC(=O)c2ccc(-c3ccc([N+](=O)[O-])cc3)o2)ccc1O | 2.5 | 2.5 | Active | inactive | inactive | – | – | – | – | Activity (Rattus norvegicus [4]): Active |
| O=C(N/N=C/c1ccccc1)c1ccc(-c2ccc([N+](=O)[O-])cc2)o1 | 2.5 | 2 | Active | – | inactive | 2.5 | – | – | – | – |
| C/C(=N\NC(=O)c1ccc(-c2ccc([N+](=O)[O-])cc2)o1)c1ccc(Br)cc1 | – | 2.5 | – | – | inactive | 2.5 | Active | inactive | – | – |
| C/C(=N\NC(=O)c1ccc(-c2ccc([N+](=O)[O-])cc2)o1)c1ccc(C)cc1 | – | 2.5 | – | inactive | – | – | Active | inactive | – | Activity (Rattus norvegicus [10]): Active |
| NC(=O)N1c2ccccc2C=Cc2ccccc21 [CARBAMAZEPINE] | – | 2.5 | – | – | – | – | – | – | – | Activity (Rattus norvegicus [11]): Active; Activity (Rattus norvegicus [12]): Active |
| NCC1(CC(=O)O)CCCCC1 [GABAPENTIN] | 1 | 2.5 | – | – | – | – | – | – | – | Activity (Rattus norvegicus [13]): Active |
| C/C(=N\NC(=O)c1ccc(-c2ccc([N+](=O)[O-])cc2)o1)c1ccccc1 | 2.5 | 2.5 | Active | – | – | 2.5 | Active | – | – | Activity (Rattus norvegicus [14]): Active |
| COc1ccc(/C=N/NC(=O)c2ccc(-c3ccc([N+](=O)[O-])cc3)o2)cc1 | 2.5 | – | Active | – | – | 2.5 | – | – | inactive | Activity (Rattus norvegicus [15]): Active; fold change (FC) (Rattus norvegicus [16]): 5 |
| O=C(N/N=C/c1ccc(Br)cc1)c1ccc(-c2ccc([N+](=O)[O-])cc2)o1 | 2.5 | – | – | – | – | 2.5 | – | – | inactive | Activity (Rattus norvegicus [15]): Active; Activity (Rattus norvegicus [18]): Active; fold change (FC) (Rattus norvegicus [19]): 6 |
| Nc1nnc(-c2cccc(Cl)c2Cl)c(N)n1 | – | – | – | – | – | – | Active | – | – | Activity (Rattus norvegicus [20]): Active |
| O=C(N/N=C/c1ccc([N+](=O)[O-])o1)c1ccc(-c2ccc([N+](=O)[O-])cc2)o1 | 2.5 | 2.5 | Active | – | Active | 2.5 | – | – | – | – |
| C/C(=N\NC(=O)c1ccc(-c2ccc([N+](=O)[O-])cc2)o1)c1ccc(F)cc1 | – | – | – | inactive | inactive | – | – | inactive | inactive | – |
| Cc1ccc(/C=N/NC(=O)c2ccc(-c3ccc([N+](=O)[O-])cc3)o2)cc1 | – | – | – | inactive | Active | – | – | inactive | inactive | – |
